Key:
[1] = test system: collagen-induced arthritis (CIA) in DBA-1 mice; assay: Murine collagen-induced arthritis (CIA); assay type: in vivo
Description: CIA induction in mice was attained by sensitizing mice with type-II collagen to trigger experimental arthritis (see Courtenay et al., Nature, 283, 666-668, 1980).
An emulsion having an antigen amount of 100 μg/0.1 ml/mouse was intracutaneously injected into the tail root of each mouse. Three weeks after the first sensitization, the same emulsion also having an antigen amount of 100 μg/0.1 ml/mouse was again intracutaneously injected into the tail root of each mouse for boosting (additional) immunization, in the same manner as that for the first sensitization. About 4 days after the additional immunization, the mice were diagnosed as being arthritic, in which reddish edema was observed. […] The level of the edema in the mice was grouped into 4 ranks, and every limb (in four limbs) of each mouse was visually checked. […]
Collagen-induced arthritis (CIA) was induced in mice in the same manner as above, and the mice were tested also in the same manner as above. […] The mice were judged on day 14 after the boosting (additional) immunization.
The test condition was the same as above. As a result, in the control group, four of the five mice developed clinical arthritis in 14 days after the second subcutaneous administration; but in the ornithine-administered group, no mice developed it within 14 days after the second subcutaneous administration.
However, it was 0 in the combined administration group.

[2] = test system: SKG mice, model mice with spontaneously-developed chronic rheumatism (rheumatoid arthritis); assay: SKG mice with spontaneously-developed chronic rheumatism; assay type: in vivo
Excerpt: Regarding the score, 0 indicates no change; 0.1 indicates reddish edema seen in the finger joints of the mice; 0.5 indicates edema seen in the joints of the four limbs thereof; and 1.0 indicates serious edema seen in the joints thereof. For these, the mice were visually checked. The total of the scores of all the four limbs of each mouse is plotted in the graph.
An SKG mouse model is known as the naturally-occurring model. This is found in BALB/c mouse colonies as a mouse that develops clinical arthritis, and it is sustained through sibship mating. Regarding the thus-mated SKG mice, when they are judged at 6-month age, almost all mice have some clinical arthritis (joint edema) in any of four limb joints. The arthritis is not by vertical/horizontal infection with microorganisms but is by autosomal recessive inheritance mutation. The clinical arthritis (joint edema) starts in around 2 months after the birth essentially at the finger joints of the forepaws, and thereafter extends to the joints of the hands and the joints of the legs. After 6 months, most of the mice develop arthrosclerosis (articular rigidity). From the pathohistological viewpoint, the disease starts from synovitis to periarthritis and further toward pannus formation and cartilage/subcartilaginous bone tissue fracture and fibrillation. […] This is an extremely interesting model for studying the mechanism of delayed inflammations. As an engineering model, there is known a transgenic (tg) mouse with a Tax gene of a human T cell leukemia virus-1 (HTLV-1) inserted therein. The tg mouse has the transgene expressing in the local joints, in which inflammatory cytokines such as IL-1α, IL-1β, IL-6, TNF-α, TGF-β, IFN-γ and IL-2, as well as MHC gene are activated. […] The tg mouse is a significant model in studies where the influence of Tax gene that will be probably because of its transactivation on the production of inflammatory cytokines or the influence of viruses on the mechanism of autoimmune reaction, and the like are specifically investigated.
The pharmaceutical potency of the above-mentioned BCAA, mixture of branched amino acids, was investigated on SKG mice, model mice with spontaneously-developed chronic rheumatism (articular rheumatism). In the same manner as in Example 2, BCAA was orally administered to 4-weeks-old (before RA development) or 12-weeks-old (after RA development), male SKG mice. The dose to each mouse was 250 mg/liter.

[3] = test system: adjuvant-induced arthritis (AA) in Lewis rats; settings: 0.03% ornithine oral
Description: AA induction in rats was attained in a well-known laboratory method (see Taurog et al., Meth. Enzymolo., 162, 339-355, 1988). Specifically, 50 μ/rat of 1% (w/v) adjuvant was administered to the bottom of the right foot of each rat. One, two and three weeks after the administration, the volume of the edema in the bottom of the right foot of each rat was measured by the use of a device for measuring rats' hind leg (foot) edema.
The dose is the same as in Example 1.
On day 7, 14 and 21 after the adjuvant administration, the rats were checked for edema.

[4] = 0.03% L-ornithine oral from 4 weeks old, mice having turned 20 weeks old

NCCC[C@H](N)C(=O)O [Ornithine, L-ornithine]
Arthritis Score ([1]; L-ornithine 0.006 wt.% aqueous solution, day 14 after boosting immunization): 1.0 | Arthritis Score ([1]; L-ornithine 0.01% alone, oral in drinking water, day 12 after the second subcutaneous administration): 0.8 | mice showing edema in leg joints ([1]; L-ornithine 0.01% single administration, day 12 after the second subcutaneous administration): three of the ten | Arthritis Score ([1]; L-ornithine 0.03 wt.% aqueous solution, day 14 after boosting immunization): 0.6 | dose dependence of effect on CIA (in words) ([1]; L-ornithine 0.15%, 0.03%, 0.006% aqueous solutions): dose-response (dependent) effect of retarding clinical arthritis | Arthritis Score ([1]; L-ornithine 0.15 wt.% aqueous solution, day 14 after boosting immunization): 0.2 | effect of feeding as solid feed on clinical arthritis (in words) ([1]; L-ornithine in solid feed): effective for retarding clinical arthritis | mice that developed clinical arthritis ([1]; L-ornithine in solid feed, within 14 days after the second subcutaneous administration): no mice | effect on CIA (in words) ([1]; ornithine 0.03% oral): significantly retards CIA | Arthritis Score ([1]; ornithine 0.03% oral, day 0 after antigenation): 0 | Arthritis Score ([1]; ornithine 0.03% oral, day 4 after antigenation): 0 | Arthritis Score ([1]; ornithine 0.03% oral, day 6 after antigenation): 0 | Arthritis Score ([1]; ornithine 0.03% oral, day 8 after antigenation): 0 | Arthritis Score ([1]; ornithine 0.03% oral, day 10 after antigenation): 0 | Arthritis Score ([1]; ornithine 0.03% oral, day 12 after antigenation): 0 | Arthritis Score ([1]; ornithine 0.03% oral, day 14 after antigenation): 0 | tested mice showing edema ([1]; ornithine 0.03% oral, up to day 13 after the second subcutaneous administration): none | arthritis (joint) score ([1]; ornithine 0.03% oral, whole observation (control followed up to day 17)): zero | effect on clinical arthritis (joint edema) in SKG mice (in words) ([2]; 0.03% L-ornithine oral): significantly retard the clinical arthritis (joint edema) | arthritis score average ([2]; 0.03% L-ornithine oral from 4 weeks old, male SKG mice having turned 11 weeks old): 0.18 | arthritis (joint) score average [2, 4]: 2.0 | score reduction as compared with the control group [2, 4]: 35% | disease development (in words) ([2]; 0.03% L-ornithine oral started at 8 weeks old, effect lower than with start at 4 weeks old): the disease development was depressed in 2 weeks | dose dependence of effect in SKG mice (in words) ([2]; L-ornithine 0.15%, 0.03%, 0.006% aqueous solutions, FIG. 3): dose-dependent (response) effect of retarding clinical arthritis | effect on clinical arthritis in AA models (in words) [3]: significantly retards clinical arthritis

From patent US20040072725A1, “Remedies/preventives for inflammatory diseases” (AJINOMOTO CO. INC, priority 2001, published 2004)
